Measurements: patent US9695154B2, “Heteroaryl inhibitors of sumo activating enzyme” (MILLENNIUM PHARMACEUTICALS, INC., priority 2013, dated 2017)

Molecular target: T1, recombinant human SAE enzyme (Homo sapiens, UniProt Q9UBT2)
T1 sequence (Q9UBT2 1-640): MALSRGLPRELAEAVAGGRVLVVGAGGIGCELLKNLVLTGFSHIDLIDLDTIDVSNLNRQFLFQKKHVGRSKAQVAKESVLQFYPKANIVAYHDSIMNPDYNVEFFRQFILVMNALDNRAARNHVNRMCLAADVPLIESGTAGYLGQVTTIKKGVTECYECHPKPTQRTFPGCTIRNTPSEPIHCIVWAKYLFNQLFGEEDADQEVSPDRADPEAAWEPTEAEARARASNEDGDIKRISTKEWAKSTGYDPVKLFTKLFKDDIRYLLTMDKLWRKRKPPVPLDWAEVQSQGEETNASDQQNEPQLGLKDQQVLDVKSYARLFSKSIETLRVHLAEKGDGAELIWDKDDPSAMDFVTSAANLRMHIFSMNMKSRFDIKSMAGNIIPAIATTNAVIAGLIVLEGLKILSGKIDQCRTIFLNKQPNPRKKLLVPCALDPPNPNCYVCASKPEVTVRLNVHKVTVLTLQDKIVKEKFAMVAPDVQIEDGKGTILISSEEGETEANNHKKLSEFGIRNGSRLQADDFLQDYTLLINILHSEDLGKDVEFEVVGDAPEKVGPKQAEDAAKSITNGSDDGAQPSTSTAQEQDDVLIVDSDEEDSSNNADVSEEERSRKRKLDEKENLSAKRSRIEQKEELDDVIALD
T1 sequence (Q9UBE0 1-346 partner): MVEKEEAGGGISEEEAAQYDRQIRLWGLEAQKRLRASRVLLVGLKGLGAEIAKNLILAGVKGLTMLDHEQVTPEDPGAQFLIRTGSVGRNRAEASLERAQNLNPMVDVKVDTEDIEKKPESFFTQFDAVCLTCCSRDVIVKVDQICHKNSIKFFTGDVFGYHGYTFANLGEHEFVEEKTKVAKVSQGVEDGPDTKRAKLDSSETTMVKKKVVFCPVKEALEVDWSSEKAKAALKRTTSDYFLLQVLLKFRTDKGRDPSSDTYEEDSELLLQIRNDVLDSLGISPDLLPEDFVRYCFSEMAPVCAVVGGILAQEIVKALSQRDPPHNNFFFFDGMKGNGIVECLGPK
Experiment: SAE HTRF Enzyme Assay
Assay type: biochemical
Settings: for IC50: class symbols A-C; for inhibition at 0.111 µM: compound concentration 0.111 μM, read-out: Percent Inhibition
How it was run: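 Measured as FRET after a 2 h antibody step: SAE (0.11 nM) thioester transfer of Sumo-Flag to Ubc9-GST, 0.5 μM ATP, 24° C for 105 min, quenched with 20 mM EDTA. Output is IC50 or percent inhibition at a single concentration.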

Structure (SMILES) | IC50 [µM] | inhibition at 0.111 µM [%]
NS(=O)(=O)OC[C@H]1C[C@@H](Nc2ncncc2C(=O)c2cc(Cl)n(Cc3ccc(Cl)o3)c2)[C@@H](F)[C@@H]1O [Compound I-254, [(1R,2R,3R,4R)-4-{[5-({5-chloro-1-[(5-chloro-2-furyl)methyl]-1H-pyrrol-3-yl}carbonyl)pyrimidin-4-yl]amino}-3-fluoro-2-hydroxycyclopentyl]methyl sulfamate] | < 0.01 | 99
NS(=O)(=O)OC[C@H]1C[C@@H](Nc2ncncc2C(=O)c2ccn(S(=O)(=O)c3cccc(Br)c3)c2)C[C@@H]1O [Compound I-255, [(1R,2S,4R)-4-{[5-({1-[(3-bromophenyl)sulfonyl]-1H-pyrrol-3-yl}carbonyl)pyrimidin-4-yl]amino}-2-hydroxycyclopentyl]methyl sulfamate] | < 0.01 | 97
NS(=O)(=O)OC[C@H]1C[C@@H](Nc2ncncc2C(=O)c2ccn(Cc3cccc(OC(F)F)c3)n2)[C@H](O)[C@@H]1O [Compound I-256, [(1R,2R,3S,4R)-4-{[5-({1-[3-(difluoromethoxy)benzyl]-1H-pyrazol-3-yl}carbonyl)pyrimidin-4-yl]amino}-2,3-dihydroxycyclopentyl]methyl sulfamate] | < 0.01 | 99
NS(=O)(=O)OC[C@H]1C[C@@H](Nc2ncncc2C(=O)c2ccn(Cc3ccc(C(F)(F)F)s3)c2)[C@@H](F)[C@@H]1O [Compound I-257, [(1R,2R,3R,4R)-3-fluoro-2-hydroxy-4-({5-[(1-{[5-(trifluoromethyl)-2-thienyl]methyl}-1H-pyrrol-3-yl)carbonyl]pyrimidin-4-yl}amino)cyclopentyl]methyl sulfamate] | < 0.01 | 98
NS(=O)(=O)OC[C@H]1C[C@@H](Nc2ncncc2C(=O)c2ccn(Cc3cc(F)cc(C(F)(F)F)c3)n2)[C@H](O)[C@@H]1O [Compound I-258, [(1R,2R,3S,4R)-4-{[5-({1-[3-fluoro-5-(trifluoromethyl)benzyl]-1H-pyrazol-3-yl}carbonyl)pyrimidin-4-yl]amino}-2,3-dihydroxycyclopentyl]methyl sulfamate] | < 0.01 | 97
NS(=O)(=O)OC[C@H]1C[C@@H](Nc2ncncc2C(=O)c2ccn(Cc3ccc(SC(F)(F)F)cc3)n2)[C@H](O)[C@@H]1O [Compound I-259, [(1R,2R,3S,4R)-2,3-dihydroxy-4-({5-[(1-{4-[(trifluoromethyl)sulfanyl]benzyl}-1H-pyrazol-3-yl)carbonyl]pyrimidin-4-yl}amino)cyclopentyl]methyl sulfamate] | < 0.01 | 95
NS(=O)(=O)OC[C@H]1C[C@@H](Nc2ncncc2C(=O)c2ccn(Cc3cc(F)cc(F)c3)n2)C[C@@H]1O [Compound I-260, {(1R,2S,4R)-4-[(5-{[1-(3,5-difluorobenzyl)-1H-pyrazol-3-yl]carbonyl}pyrimidin-4-yl)amino]-2-hydroxycyclopentyl}methyl sulfamate] | < 0.01 | 91
NS(=O)(=O)OC[C@H]1C[C@@H](Nc2ncncc2C(=O)c2ccn(Cc3cc(C(F)(F)F)ccc3C(F)(F)F)n2)C[C@@H]1O [Compound I-261, [(1R,2S,4R)-4-{(5-({1-[2,5-bis(trifluoromethyl)benzyl]-1H-pyrazol-3-yl}carbonyl)pyrimidin-4-yl]amino}-2-hydroxycyclopentyl]methyl sulfamate] | < 0.01 | 97
NS(=O)(=O)OC[C@H]1C[C@@H](Nc2ccncc2C(=O)c2ccn(Cc3cccc(C(F)(F)F)c3)n2)C[C@@H]1O [Compound I-262, [(1R,2S,4R)-2-hydroxy-4-{[3-({1-[3-(trifluoromethyl)benzyl]-1H-pyrazol-3-yl}carbonyl)pyridin-4-yl]amino}cyclopentyl]methyl sulfamate] | < 0.01 | 96
NS(=O)(=O)OC[C@H]1C[C@@H](Nc2ccncc2C(=O)c2ccn(Cc3ccc(F)c(C(F)(F)F)c3)n2)C[C@@H]1O [Compound I-263, [(1R,2S,4R)-4-{[3-({1-[4-fluoro-3-(trifluoromethyl)benzyl]-1H-pyrazol-3-yl}carbonyl)pyridin-4-yl]amino}-2-hydroxycyclopentyl]methyl sulfamate] | < 0.01 | 91
NS(=O)(=O)OC[C@H]1C[C@@H](Nc2ncncc2C(=O)c2ccn(C3(c4cccc(Cl)c4)CC3)c2)C[C@@H]1O [Compound I-264, [(1R,2S,4R)-4-{[5-({1-[1-(3-Chlorophenyl)cyclopropyl]-1H-pyrrol-3-yl}carbonyl)pyrimidin-4-yl]amino}-2-hydroxycyclopentyl]methyl sulfamate] | 0.01 to 0.1 | 90
NS(=O)(=O)OC[C@H]1C[C@@H](Nc2ncncc2C(=O)c2ccn(Cc3ccc(OC(F)(F)F)cc3)n2)[C@H](O)[C@@H]1O [Compound I-265, [(1R,2R,3S,4R)-2,3-dihydroxy-4-{[5-({1-[4-(trifluoromethoxy)benzyl]-1H-pyrazol-3-yl}carbonyl)pyrimidin-4-yl]amino}cyclopentyl]methyl sulfamate] | < 0.01 | 95
NS(=O)(=O)OC[C@H]1C[C@@H](Nc2ncncc2C(=O)c2ccn(Cc3ccc(C(F)(F)F)cc3C(F)(F)F)n2)[C@H](O)[C@@H]1O [Compound I-266, [(1R,2R,3S,4R)-4-{[5-({1-[2,4-bis(trifluoromethyl)benzyl]-1H-pyrazol-3-yl}carbonyl)pyrimidin-4-yl]amino}-2,3-dihydroxycyclopentyl]methyl sulfamate] | 0.01 to 0.1 | 87
NS(=O)(=O)OC[C@H]1C[C@@H](Nc2ncncc2C(=O)c2ccn(Cc3cc(C(F)(F)F)ccc3C(F)(F)F)n2)[C@H](O)[C@@H]1O [Compound I-267, [(1R,2R,3S,4R)-4-{[5-({1-[2,5-bis(trifluoromethyl)benzyl]-1H-pyrazol-3-yl}carbonyl)pyrimidin-4-yl]amino}-2,3-dihydroxycyclopentyl]methyl sulfamate] | < 0.01 | 97
NS(=O)(=O)OC[C@H]1C[C@@H](Nc2ncncc2C(=O)c2ccn(Cc3cc(C(F)(F)F)ccc3Cl)n2)[C@H](O)[C@@H]1O [Compound I-268, [(1R,2R,3S,4R)-4-{[5-({1-[2-chloro-5-(trifluoromethyl)benzyl]-1H-pyrazol-3-yl}carbonyl)pyrimidin-4-yl]amino}-2,3-dihydroxycyclopentyl]methyl sulfamate] | < 0.01 | 99
NS(=O)(=O)OC[C@H]1C[C@@H](Nc2ncncc2C(=O)c2ccn(Cc3cc(F)cc(F)c3)n2)[C@H](O)[C@@H]1O [Compound I-269, {(1R,2R,3S,4R)-4-[(5-{[1-(3,5-difluorobenzyl)-1H-pyrazol-3-yl]carbonyl}pyrimidin-4-yl)amino]-2,3-dihydroxycyclopentyl}methyl sulfamate] | < 0.01 | 96
NS(=O)(=O)OC[C@H]1C[C@@H](Nc2ncncc2C(=O)c2ccn(Cc3cccc(C4(O)COC4)c3)n2)C[C@@H]1O [Compound I-270, [(1R,2S,4R)-2-hydroxy-4-{[5-{{1-[3-(3-hydroxyoxetan-3-yl)benzyl]-1H-pyrazol-3-yl}carbonyl)pyrimidin-4-yl]amino}cyclopentyl]methyl sulfamate] | 0.01 to 0.1 | 87
NS(=O)(=O)OC[C@H]1C[C@@H](Nc2ncncc2C(=O)c2ccn(Cc3cccc(OC(F)(F)F)c3)c2)C[C@@H]1O [Compound I-271, [(1R,2S,4R)-2-hydroxy-4-{[5-({1-[3-(trifluoromethoxy)benzyl]-1H-pyrrol-3-yl}carbonyl)pyrimidin-4-yl]amino}cyclopentyl]methyl sulfamate] | < 0.01 | 97
NS(=O)(=O)OC[C@H]1C[C@@H](Nc2ncncc2C(=O)c2cc(Br)n(Cc3cccc(Br)c3)c2)[C@@H](F)[C@@H]1O [Compound I-272, {(1R,2R,3R,4R)-4-[(5-{[5-bromo-1-(3-bromobenzyl)-1H-pyrrol-3-yl]carbonyl}pyrimidin-4-yl)amino]-3-fluoro-2-hydroxycyclopentyl}methyl sulfamate] | < 0.01 | 99
NS(=O)(=O)OC[C@H]1C[C@@H](Nc2ncncc2C(=O)c2ccn(Cc3ccc(F)c4ccccc34)n2)[C@H](O)[C@@H]1O [Compound I-273, [(1R,2R,3S,4R)-4-{[5-({1-[(4-fluoro-1-naphthyl)methyl]-1H-pyrazol-3-yl}carbonyl)pyrimidin-4-yl]amino}-2,3-dihydroxycyclopentyl]methyl sulfamate] | < 0.01 | 98
